Test results: US7449461B2, “Benzathiazol-acetamides” (Hoffmann-La Roche Inc., priority 2004, dated 2008)

Tests used:
[1] = molecular target: T1, human adenosine A2A receptor (Homo sapiens, UniProt P29274); assay: [3H]-SCH-58261 binding assay on human adenosine A2A receptor membranes (SPA); settings: recombinant receptor expressed in CHO cells, radioligand [3H]-SCH-58261 1 nM, Ki by Cheng-Prussoff equation from IC50; for Ki: read-out: hA2 (pKi) (converted)
T1 construct: expressed in transfected cells; host or cells: CHO cells, Semliki Forest virus expression system; washed membrane preparation
T1 sequence (P29274 whole entry): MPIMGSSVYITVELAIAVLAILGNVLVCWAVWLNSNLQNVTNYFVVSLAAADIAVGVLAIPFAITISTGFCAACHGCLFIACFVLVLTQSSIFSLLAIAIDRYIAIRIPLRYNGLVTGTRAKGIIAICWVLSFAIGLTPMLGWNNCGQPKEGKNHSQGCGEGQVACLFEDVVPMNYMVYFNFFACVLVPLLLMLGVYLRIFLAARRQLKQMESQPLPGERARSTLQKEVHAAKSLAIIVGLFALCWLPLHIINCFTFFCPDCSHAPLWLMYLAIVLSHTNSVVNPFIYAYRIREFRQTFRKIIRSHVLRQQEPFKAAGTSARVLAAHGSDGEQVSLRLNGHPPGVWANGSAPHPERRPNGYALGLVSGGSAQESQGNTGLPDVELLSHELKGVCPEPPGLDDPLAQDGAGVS
Description: Human Adenosine A2A Receptor
The human adenosine A2A receptor was recombinantly expressed in Chinese hamster ovary (CHO) cells using the semliki forest virus expression system. Cells were harvested, washed twice by centrifugation, homogenized and again washed by centrifugation. The final washed membrane pellet was suspended in a Tris (50 mM) buffer containing 120 mM NaCl, 5 mM KCl, 2 mM CaCl2 and 10 mM MgCl2 (pH 7.4) (buffer A). The [^3H]-SCH-58261 (Dionisotti et al., 1997, Br J Pharmacol 121, 353; 1 nM) binding assay was carried out in 96-well plates in the presence of 2.5 μg of membrane protein, 0.5 mg of Ysi-poly-1-lysine SPA beads and 0.1 U adenosine deaminase in a final volume of 200 μl of buffer A. Non-specific binding was defined using xanthine amine congener (XAC; 2 μM). Compounds were tested at 10 concentrations from 10 μM-0.3 nM. All assays were conducted in duplicate and repeated at least two times. Assay plates were incubated for 1 hour at room temperature before centrifugation and then bound ligand determined using a Packard Topcount scintillation counter. IC50 values were calculated using a non-linear curve fitting program and Ki values calculated using the Cheng-Prussoff equation.

Compound | Ki [1] [nM] | melting point [°C] | hA2 (pKi) [1]
COc1ccc(N2CCOCC2)c2sc(NC(=O)C(C)C34CCC(CC3)O4)nc12 (racemic) [Example 7, (rac)-N-(4-Methoxy-7-morpholin-4-yl-benzothiazol-2-yl)-2-(7-oxa-bicyclo[2.2.1]hept-1-yl)-propionamide] | 20 | 195 to 197 | –
COc1ccc(N2CCOCC2)c2sc(NC(=O)C[C@H]3CC[C@@H](OC(C)=O)C3)nc12 (single isomer, unassigned) [Example 1, (cis)-2-(3-Acetoxy-cyclopentyl)-N-(4-methoxy-7-morpholin-4-yl-benzothiazol-2-yl)-acetamide] | 10 | 171 to 172 | –
COc1ccc(N2CCOCC2)c2sc(NC(=O)C[C@H]3CC[C@@H](OC(C)=O)C3)nc12 (single isomer, unassigned) [Example 2, (cis)-2-(3-Acetoxy-cyclopentyl)-N-(4-methoxy-7-morpholin-4-yl-benzothiazol-2-yl)-acetamide] | 6.31 | 172 to 173 | –
COc1ccc(N2CCOCC2)c2sc(NC(=O)C[C@H]3CC[C@@H](O)C3)nc12 (single isomer, unassigned) [Example 3, (−)-(cis)-2-(3-Hydroxy-cyclopentyl)-N-(4-methoxy-7-morpholin-4-yl-benzothiazol-2-yl)-acetamide] | 6.31 | 168 to 171 | –
COc1ccc(N2CCOCC2)c2sc(NC(=O)C[C@H]3CC[C@@H](O)C3)nc12 (single isomer, unassigned) [Example 4, (+)-(cis)-2-(3-Hydroxy-cyclopentyl)-N-(4-methoxy-7-morpholin-4-yl-benzothiazol-2-yl)-acetamide] | – | 167 to 170 | 8.2
COc1ccc(N2CCOCC2)c2sc(NC(=O)C[C@H]3CC[C@@H](O)CC3)nc12 [Example 5, (cis)-2-(4-Hydroxy-cyclohexyl)-N-(4-methoxy-7-morpholin-4-yl-benzothiazol-2-yl)-acetamide] | 6.31 | 212 to 216 | –
COc1ccc(N2CCOCC2)c2sc(NC(=O)C[C@H]3CC[C@H](O)CC3)nc12 [Example 6, (trans)-2-(4-Hydroxy-cyclohexyl)-N-(4-methoxy-7-morpholin-4-yl-benzothiazol-2-yl)-acetamide] | 3.16 | 190 to 192 | –
